Values quoted from earlier work as cited in patent publication US20110086911A1, “NOVEL BISMUTH(III) NSAID COMPOUNDS AND METHODS FOR THEIR USE” (Monash University, priority 2009, published 2011).

System: H. pylori strains B128, 251 and 26695
Conditions: comparison values for substances not listed among those tested

Row | Molecule | MIC value
1 | CNC(=C[N+](=O)[O-])NCCSCc1ccc(CN(C)C)o1.O=C([O-])CC(O)(CC(=O)[O-])C(=O)[O-].[Bi+3] [RBC, ranitidine bismuth citrate] | 8 µg/mL
2 | colloidal bismuth subcitrate [CBS] | ≥ 12.5 µg/mL
